Test results from ChEMBL document CHEMBL1671627, “Increasing trends in antimicrobial resistance among clinically important anaerobes and Bacteroides fragilis isolates causing nosocomial infections: emerging resistance to carbapenems” (2008).
Values after ≈ are worked out from the molar mass of the structure shown.

Experiments:
Finegoldia magna [1] = assay: Antibacterial activity against beta-lactamase producing Finegoldia magna by CLSI agar dilution method; type: functional
Bacteroides uniformis [2] = assay: Antibacterial activity against beta-lactamase producing Bacteroides uniformis assessed as susceptible isolates by CLSI agar dilution method; type: functional
Prevotella buccae [3] = assay: Antibacterial activity against Prevotella buccae assessed as resistant isolates by CLSI agar dilution method; type: functional, Segatella buccae
[4] = test system: Peptoniphilus asaccharolyticus; assay: Antibacterial activity against beta-lactamase producing Peptoniphilus asaccharolyticus assessed as susceptible isolates by CLSI agar dilution method; type: functional
Phocaeicola vulgatus [5] = assay: Antibacterial activity against beta-lactamase producing Bacteroides vulgatus assessed as resistant isolates by CLSI agar dilution method; type: functional
Parvimonas micra [6] = assay: Antibacterial activity against beta-lactamase producing Micromonas micros by CLSI agar dilution method; type: functional
[7] = test system: Peptostreptococcus anaerobius; assay: Antibacterial activity against beta-lactamase producing Peptostreptococcus anaerobius assessed as resistant isolates by CLSI agar dilution method; type: functional
Finegoldia magna [8] = assay: Antibacterial activity against beta-lactamase producing Finegoldia magna assessed as susceptible isolates by CLSI agar dilution method; type: functional
[9] = test system: Fusobacterium necrophorum; assay: Antibacterial activity against Fusobacterium necrophorum assessed as resistant isolates by CLSI agar dilution method; type: functional
Clostridium septicum [10] = assay: Antibacterial activity against beta-lactamase producing Clostridium septicum assessed as susceptible isolates by CLSI agar dilution method; type: functional
Prevotella bivia [11] = assay: Antibacterial activity against Prevotella bivia by CLSI agar dilution method; type: functional
Fusobacterium nucleatum [12] = assay: Antibacterial activity against Fusobacterium nucleatum by CLSI agar dilution method; type: functional
[13] = test system: Peptoniphilus asaccharolyticus; assay: Antibacterial activity against beta-lactamase producing Peptoniphilus asaccharolyticus by CLSI agar dilution method; type: functional
Clostridium tertium [14] = assay: Antibacterial activity against beta-lactamase producing Clostridium tertium assessed as susceptible isolates by CLSI agar dilution method; type: functional
[15] = test system: Prevotella melaninogenica; assay: Antibacterial activity against Prevotella melaninogenica assessed as resistant isolates by CLSI agar dilution method; type: functional
Bacteroides caccae [16] = assay: Antibacterial activity against beta-lactamase producing Bacteroides caccae by CLSI agar dilution method; type: functional
[17] = test system: Bacteroides thetaiotaomicron; assay: Antibacterial activity against beta-lactamase producing Bacteroides thetaiotaomicron assessed as susceptible isolates by CLSI agar dilution method; type: functional
Veillonella parvula = assay: Antibacterial activity against Veillonella parvula by CLSI agar dilution method; type: functional
Prevotella bivia [18] = assay: Antibacterial activity against Prevotella bivia assessed as resistant isolates by CLSI agar dilution method; type: functional
Bacteroides caccae [19] = assay: Antibacterial activity against beta-lactamase producing Bacteroides caccae assessed as susceptible isolates by CLSI agar dilution method; type: functional
Bacteroides uniformis [20] = assay: Antibacterial activity against beta-lactamase producing Bacteroides uniformis by CLSI agar dilution method; type: functional
Finegoldia magna [21] = assay: Antibacterial activity against beta-lactamase producing Finegoldia magna assessed as resistant isolates by CLSI agar dilution method; type: functional
[22] = test system: Prevotella melaninogenica; assay: Antibacterial activity against Prevotella melaninogenica by CLSI agar dilution method; type: functional
Fusobacterium varium [23] = assay: Antibacterial activity against Fusobacterium varium assessed as resistant isolates by CLSI agar dilution method; type: functional
[24] = test system: Peptoniphilus asaccharolyticus; assay: Antibacterial activity against beta-lactamase producing Peptoniphilus asaccharolyticus assessed as resistant isolates by CLSI agar dilution method; type: functional
Parvimonas micra [25] = assay: Antibacterial activity against beta-lactamase producing Micromonas micros assessed as susceptible isolates by CLSI agar dilution method; type: functional
[26] = test system: Clostridium paraputrificum; assay: Antibacterial activity against beta-lactamase producing Clostridium paraputrificum by CLSI agar dilution method; type: functional
Phocaeicola vulgatus [27] = assay: Antibacterial activity against beta-lactamase producing Bacteroides vulgatus by CLSI agar dilution method; type: functional
Bacteroides uniformis [28] = assay: Antibacterial activity against beta-lactamase producing Bacteroides uniformis assessed as resistant isolates by CLSI agar dilution method; type: functional
Fusobacterium mortiferum [29] = assay: Antibacterial activity against Fusobacterium mortiferum assessed as susceptible isolates by CLSI agar dilution method; type: functional
Fusobacterium nucleatum [30] = assay: Antibacterial activity against Fusobacterium nucleatum assessed as susceptible isolates by CLSI agar dilution method; type: functional
Clostridium tertium [31] = assay: Antibacterial activity against beta-lactamase producing Clostridium tertium assessed as resistant isolates by CLSI agar dilution method; type: functional
Parvimonas micra [32] = assay: Antibacterial activity against beta-lactamase producing Micromonas micros assessed as resistant isolates by CLSI agar dilution method; type: functional
[33] = test system: Clostridium paraputrificum; assay: Antibacterial activity against beta-lactamase producing Clostridium paraputrificum assessed as resistant isolates by CLSI agar dilution method; type: functional
[34] = test system: Fusobacterium necrophorum; assay: Antibacterial activity against Fusobacterium necrophorum assessed as susceptible isolates by CLSI agar dilution method; type: functional
[35] = test system: Peptostreptococcus anaerobius; assay: Antibacterial activity against beta-lactamase producing Peptostreptococcus anaerobius assessed as susceptible isolates by CLSI agar dilution method; type: functional
Prevotella intermedia [36] = assay: Antibacterial activity against Prevotella intermedia assessed as resistant isolates by CLSI agar dilution method; type: functional
[37] = test system: Clostridium paraputrificum; assay: Antibacterial activity against beta-lactamase producing Clostridium paraputrificum assessed as susceptible isolates by CLSI agar dilution method; type: functional
Prevotella intermedia [38] = assay: Antibacterial activity against Prevotella intermedia by CLSI agar dilution method; type: functional
[39] = test system: Prevotella melaninogenica; assay: Antibacterial activity against Prevotella melaninogenica assessed as susceptible isolates by CLSI agar dilution method; type: functional
[40] = test system: Bacteroides thetaiotaomicron; assay: Antibacterial activity against beta-lactamase producing Bacteroides thetaiotaomicron by CLSI agar dilution method; type: functional
Prevotella bivia [41] = assay: Antibacterial activity against Prevotella bivia assessed as susceptible isolates by CLSI agar dilution method; type: functional
Prevotella buccae [42] = assay: Antibacterial activity against Prevotella buccae by CLSI agar dilution method; type: functional; settings: Segatella buccae
Bacteroides fragilis [43] = assay: Antibacterial activity against Bacteroides fragilis assessed as susceptible isolates by CLSI agar dilution method; type: functional
Clostridium tertium [44] = assay: Antibacterial activity against beta-lactamase producing Clostridium tertium by CLSI agar dilution method; type: functional
Fusobacterium varium [45] = assay: Antibacterial activity against Fusobacterium varium assessed as susceptible isolates by CLSI agar dilution method; type: functional
[46] = test system: Peptostreptococcus anaerobius; assay: Antibacterial activity against beta-lactamase producing Peptostreptococcus anaerobius by CLSI agar dilution method; type: functional
Fusobacterium varium [47] = assay: Antibacterial activity against Fusobacterium varium by CLSI agar dilution method; type: functional
Fusobacterium mortiferum [48] = assay: Antibacterial activity against Fusobacterium mortiferum assessed as resistant isolates by CLSI agar dilution method; type: functional
Clostridium septicum [49] = assay: Antibacterial activity against beta-lactamase producing Clostridium septicum assessed as resistant isolates by CLSI agar dilution method; type: functional
Fusobacterium nucleatum [50] = assay: Antibacterial activity against Fusobacterium nucleatum assessed as resistant isolates by CLSI agar dilution method; type: functional
[51] = test system: Bacteroides thetaiotaomicron; assay: Antibacterial activity against beta-lactamase producing Bacteroides thetaiotaomicron assessed as resistant isolates by CLSI agar dilution method; type: functional
Clostridium septicum [52] = assay: Antibacterial activity against beta-lactamase producing Clostridium septicum by CLSI agar dilution method; type: functional
Bacteroides fragilis [53] = assay: Antibacterial activity against Bacteroides fragilis by CLSI agar dilution method; type: functional
Prevotella buccae [54] = assay: Antibacterial activity against Prevotella buccae assessed as susceptible isolates by CLSI agar dilution method; type: functional, Segatella buccae
Fusobacterium mortiferum [55] = assay: Antibacterial activity against Fusobacterium mortiferum by CLSI agar dilution method; type: functional
Prevotella intermedia [56] = assay: Antibacterial activity against Prevotella intermedia assessed as susceptible isolates by CLSI agar dilution method; type: functional
Clostridium perfringens = assay: microbe, parasite or virus in culture; type: functional
Bacteroides fragilis [57] = assay: Antibacterial activity against Bacteroides fragilis assessed as resistant isolates by CLSI agar dilution method; type: functional
Bacteroides caccae [58] = assay: Antibacterial activity against beta-lactamase producing Bacteroides caccae assessed as resistant isolates by CLSI agar dilution method; type: functional
[59] = test system: Fusobacterium necrophorum; assay: Antibacterial activity against Fusobacterium necrophorum by CLSI agar dilution method; type: functional
Phocaeicola vulgatus [60] = assay: Antibacterial activity against beta-lactamase producing Bacteroides vulgatus assessed as susceptible isolates by CLSI agar dilution method; type: functional

**Q.** Which results are given for `Cc1ncc([N+](=O)[O-])n1CCO` [METRONIDAZOLE]?
**A.** MIC50 (Finegoldia magna [1]): 0.5 µg/mL (≈ 2.92 µM); MIC90 (Finegoldia magna [1]): 16 µg/mL (≈ 93.5 µM); Activity (Bacteroides uniformis [2]): 100%; Activity (Prevotella buccae [3]): 0%; Activity [4]: 88%; Activity (Phocaeicola vulgatus [5]): 0%; MIC50 (Parvimonas micra [6]): 0.5 µg/mL (≈ 2.92 µM); MIC90 (Parvimonas micra [6]): 16 µg/mL (≈ 93.5 µM); Activity [7]: 9%; Activity (Finegoldia magna [8]): 88%; Activity [9]: 0%; Activity (Clostridium septicum [10]): 64%; MIC50 (Prevotella bivia [11]): 1 µg/mL (≈ 5.84 µM); MIC90 (Prevotella bivia [11]): 8 µg/mL (≈ 46.7 µM); MIC50 (Fusobacterium nucleatum [12]): 0.5 µg/mL (≈ 2.92 µM); MIC90 (Fusobacterium nucleatum [12]): 1 µg/mL (≈ 5.84 µM); MIC50 [13]: 0.5 µg/mL (≈ 2.92 µM); MIC90 [13]: 16 µg/mL (≈ 93.5 µM); Activity (Clostridium tertium [14]): 64%; Activity [15]: 0%; MIC50 (Bacteroides caccae [16]): 1 µg/mL (≈ 5.84 µM); MIC90 (Bacteroides caccae [16]): 4 µg/mL (≈ 23.4 µM); Activity [17]: 100%; MIC (Veillonella parvula): 1 µg/mL (≈ 5.84 µM); Activity (Prevotella bivia [18]): 0%; Activity (Bacteroides caccae [19]): 100%; MIC50 (Bacteroides uniformis [20]): 1 µg/mL (≈ 5.84 µM); MIC90 (Bacteroides uniformis [20]): 4 µg/mL (≈ 23.4 µM); Activity (Finegoldia magna [21]): 9%; MIC50 [22]: 1 µg/mL (≈ 5.84 µM); MIC90 [22]: 8 µg/mL (≈ 46.7 µM); Activity (Fusobacterium varium [23]): 0%; Activity [24]: 9%; Activity (Parvimonas micra [25]): 88%; MIC50 [26]: 8 µg/mL (≈ 46.7 µM); MIC90 [26]: 16 µg/mL (≈ 93.5 µM); MIC50 (Phocaeicola vulgatus [27]): 1 µg/mL (≈ 5.84 µM); MIC90 (Phocaeicola vulgatus [27]): 4 µg/mL (≈ 23.4 µM); Activity (Bacteroides uniformis [28]): 0%; Activity (Fusobacterium mortiferum [29]): 100%; Activity (Fusobacterium nucleatum [30]): 100%; Activity (Clostridium tertium [31]): 11%; Activity (Parvimonas micra [32]): 9%; Activity [33]: 11%; Activity [34]: 100%; Activity [35]: 88%; Activity (Prevotella intermedia [36]): 0%; Activity [37]: 64%; MIC50 (Prevotella intermedia [38]): 1 µg/mL (≈ 5.84 µM); MIC90 (Prevotella intermedia [38]): 8 µg/mL (≈ 46.7 µM); Activity [39]: 94%; MIC50 [40]: 1 µg/mL (≈ 5.84 µM); MIC90 [40]: 2 µg/mL (≈ 11.7 µM); Activity (Prevotella bivia [41]): 94%; MIC50 (Prevotella buccae [42]): 1 µg/mL (≈ 5.84 µM); MIC90 (Prevotella buccae [42]): 8 µg/mL (≈ 46.7 µM); Activity (Bacteroides fragilis [43]): 98%; MIC50 (Clostridium tertium [44]): 8 µg/mL (≈ 46.7 µM); MIC90 (Clostridium tertium [44]): 16 µg/mL (≈ 93.5 µM); Activity (Fusobacterium varium [45]): 100%; MIC50 [46]: 0.5 µg/mL (≈ 2.92 µM); MIC90 [46]: 16 µg/mL (≈ 93.5 µM); MIC50 (Fusobacterium varium [47]): 0.5 µg/mL (≈ 2.92 µM); MIC90 (Fusobacterium varium [47]): 1 µg/mL (≈ 5.84 µM); Activity (Fusobacterium mortiferum [48]): 0%; Activity (Clostridium septicum [49]): 11%; Activity (Fusobacterium nucleatum [50]): 0%; Activity [51]: 0%; MIC50 (Clostridium septicum [52]): 8 µg/mL (≈ 46.7 µM); MIC90 (Clostridium septicum [52]): 16 µg/mL (≈ 93.5 µM); MIC50 (Bacteroides fragilis [53]): 2 µg/mL (≈ 11.7 µM); MIC90 (Bacteroides fragilis [53]): 8 µg/mL (≈ 46.7 µM); Activity (Prevotella buccae [54]): 94%; MIC50 (Fusobacterium mortiferum [55]): 0.5 µg/mL (≈ 2.92 µM); MIC90 (Fusobacterium mortiferum [55]): 1 µg/mL (≈ 5.84 µM); Activity (Prevotella intermedia [56]): 94%; MIC50 (Clostridium perfringens): 8 µg/mL (≈ 46.7 µM); MIC90 (Clostridium perfringens): 16 µg/mL (≈ 93.5 µM); Activity (Bacteroides fragilis [57]): 0%; Activity (Bacteroides caccae [58]): 0%; MIC50 [59]: 0.5 µg/mL (≈ 2.92 µM); MIC90 [59]: 1 µg/mL (≈ 5.84 µM); Activity (Phocaeicola vulgatus [60]): 100%
